Measurements as given in PubChem BioAssay (NCI).
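Test compounds were applied to cells in 96-well plates for 48 hours at 5 doses. TGI: total growth inhibition.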

What was measured:
Assay in all cases: inhibition of tumour cell growth, NCI panel, 48 h
[1] = test system: OVCAR-5 ovarian
[2] = test system: HS 578T breast
[3] = test system: CAKI-1 renal
[4] = test system: M14 melanoma
[5] = test system: SNB-19 CNS
[6] = test system: UACC-257 melanoma
[7] = test system: SK-MEL-2 melanoma
[8] = test system: NCI-H226 lung
[9] = test system: EKVX NSCLC
[10] = test system: NCI/ADR-RES ovarian
[11] = test system: A498 renal
[12] = test system: MCF7 breast
[13] = test system: SF-295 CNS
[14] = test system: HCC-2998 colon
[15] = test system: MDA-MB-231 breast
[16] = test system: NCI-H460 lung
[17] = test system: SK-MEL-28 melanoma
[18] = test system: SNB-75 CNS
[19] = test system: IGROV1 ovarian
[20] = test system: MDA-N
[21] = test system: K-562 leukemia
[22] = test system: SK-OV-3 ovarian
[23] = test system: UACC-62 melanoma
[24] = test system: HL-60(TB) leukemia
[25] = test system: SR leukemia
[26] = test system: 786-0 renal
[27] = test system: MOLT-4 leukemia
[28] = test system: UO-31 renal
[29] = test system: HT29 colon
[30] = test system: COLO 205 colon
[31] = test system: OVCAR-3 ovarian
[32] = test system: HOP-62 NSCLC
[33] = test system: TK-10 renal
[34] = test system: HCT-116 colon
[35] = test system: SF-268 CNS
[36] = test system: U251 CNS
[37] = test system: DU-145 prostate
[38] = test system: OVCAR-4 ovarian
[39] = test system: PC-3 prostate
[40] = test system: A549 NSCLC
[41] = test system: T-47D breast
[42] = test system: OVCAR-8 ovarian
[43] = test system: SN12C renal
[44] = test system: SF-539 CNS
[45] = test system: NCI-H522 lung
[46] = test system: BT-549 breast
[47] = test system: CCRF-CEM leukemia
[48] = test system: ACHN renal
[49] = test system: KM12 colon
[50] = test system: HCT-15 colon
[51] = test system: SW-620 colon
[52] = test system: SK-MEL-5 melanoma
[53] = test system: NCI-H23 lung
[54] = test system: MALME-3M melanoma
[55] = test system: RPMI-8226 leukemia
[56] = test system: HOP-92 NSCLC
[57] = test system: MDA-MB-435
[58] = test system: LOX IMVI melanoma

Measured: TGI

COCCNc1cncc(C(N)=O)c1
> 100 µM: [1] | [2] | [3] | [4] | [5] | [6] | [7] | [8] | [9] | [10] | [11] | [12] | [13] | [14] | [15] | [16] | [17] | [18] | [19] | [20] | [21] | [22] | [23] | [24] | [25] | [26] | [27] | [28] | [29] | [30] | [31] | [32] | [33] | [34] | [35] | [36] | [37] | [38] | [39] | [40] | [41] | [42] | [43] | [44] | [45] | [46] | [47] | [48] | [49] | [50] | [51] | [52] | [53]

NC(Cc1ccccc1)c1nccs1 (stereo not drawn)
> 100 µM: [1] | [2] | [3] | [4] | [5] | [6] | [7] | [8] | [9] | [54] | [10] | [55] | [11] | [12] | [13] | [14] | [15] | [17] | [18] | [19] | [20] | [21] | [22] | [23] | [25] | [56] | [57] | [26] | [27] | [28] | [29] | [30] | [31] | [58] | [32] | [33] | [34] | [35] | [36] | [37] | [38] | [39] | [40] | [42] | [43] | [44] | [45] | [46] | [47] | [48] | [49] | [50] | [51] | [52] | [53]
